Measurements reported in patent publication EP2459571B1, “NITROIMIDAZOOXAZINES AND THEIR USES IN ANTI-TUBERCULAR THERAPY” (priority 2009, dated 2011).
≈ marks a conversion by molar mass, not a printed value.

Key:
[1] = tested on: replicating Mycobacterium tuberculosis; assay: MIC, microplate Alamar blue assay (MABA), 8 day; type: cell-based; settings: 192 h, read-out: MIC MABA (aerobic)
in vivo = settings: mouse, po, 40 mg/kg
M. tuberculosis Erdman [2] = type: in vivo, BALB/c mice; settings: for In vivo efficacy vs PA-824, Chronic: mouse, po, 100 mg/kg
M. tuberculosis Erdman [3] = tested on: M. tuberculosis Erdman; set-up: species or system BALB/c mice; settings: mouse, po, 100 mg/kg
[4] = tested on: M. tuberculosis bacteria in the non-replicating state; assay: microbe, parasite or virus in culture; type: cell-based; settings: Mycobacterium tuberculosis, 264 h, low oxygen, 11 day, read-out: MIC LORA (anaerobic)
[5] = CD-1 mice, oral, 40 mg/kg; for t½ (h) plasma: suspension in 0.5% carboxymethylcellulose/0.08% Tween 80
[6] = Stability to mouse liver microsomes; type: in vitro ADME, CD-1 mouse; settings: pH 7.4, 37 °C, 0.5 mg/mL protein, NADPH regenerating system, 60 min
[7] = Stability to human liver microsomes; type: in vitro ADME; settings: pH 7.4, 37 °C, 0.5 mg/mL protein, NADPH regenerating system, 60 min

SMILES | MIC [1] [µM] | AUC (in vivo) [µg·h/mL] | log reduction in CFU (M. tuberculosis Erdman [2]; chronic assay, lungs, vs vehicle, oral 100 mg/kg) | In vivo efficacy vs PA-824, Chronic (M. tuberculosis Erdman [2]) | In vivo efficacy vs PA-824, Acute (M. tuberculosis Erdman [3]) | MIC [4] [µM] | Cmax plasma [5] [ng/mL] | t½ (h) plasma [5] [h] | remaining at 1 h, 1 µM [6] [%] | remaining at 1 h, 1 µM [7] [%]
O=[N+]([O-])c1cn2c(n1)OC[C@@H](OCc1ccc(OC(F)(F)F)cc1)C2 [PA-824, reference compound] | 0.5 (≈ 0.18 µg/mL) | 296 | ~ 2 log | 1.0 | 1.0 | 2.6 (≈ 0.934 µg/mL) |  |  |  | 
O=[N+]([O-])c1cn2c(n1)OC[C@@H](OCc1ccc(-c3ccc(OC(F)(F)F)cc3Cl)cc1)C2 [compound 1, (6S)-6-{[2'-Chloro-4'-(trifluoromethoxy)[1,1'-biphenyl]-4-yl]methoxy}-2-nitro-6,7-dihydro-5H-imidazo[2,1-b][1,3]oxazine] | 0.04 (≈ 0.0188 µg/mL) | 3360 |  | 2.1 | 23 | 0.78 (≈ 0.366 µg/mL) |  |  |  | 
O=[N+]([O-])c1cn2c(n1)OC[C@@H](OCc1ccc(-c3ccc(OC(F)(F)F)cc3)cc1)C2 [compound 3, (6S)-2-Nitro-6-{[4'-(trifluoromethoxy)[1,1'-biphenyl]-4-yl]methoxy}-6,7-dihydro-5H-imidazo[2,1-b][1,3]oxazine] | 0.035 (≈ 0.0152 µg/mL) | 218 |  | 12 | >205 | 1.3 (≈ 0.566 µg/mL) |  |  |  | 
O=[N+]([O-])c1cn2c(n1)OC[C@@H](OCc1cnc(-c3ccc(OC(F)(F)F)cc3)cn1)C2 [compound 4, (6S)-2-nitro-6-({5-[4-(trifluoromethoxy)phenyl]-2-pyrazinyl}methoxy)-6,7-dihydro-5H-imidazo[2,1-b][1,3]oxazine] | 0.023 (≈ 0.0101 µg/mL) | > 324 |  |  | 167 | 1 (≈ 0.437 µg/mL) | 9600 | 7.2 |  | 
O=[N+]([O-])c1cn2c(n1)OC[C@@H](OCc1ccc(-c3ccc(F)cc3)nc1)C2 [compound 5, (6S)-6-{[6-(4-Fluorophenyl)-3-pyridinyl]methoxy}-2-nitro-6,7-dihydro-5H-imidazo[2,1-b][1,3]oxazine] | 0.06 (≈ 0.0222 µg/mL) | 136 |  | 20 | 7.8 | 2.9 (≈ 1.07 µg/mL) | 5300 | 2.7 |  | 
O=[N+]([O-])c1cn2c(n1)OC[C@@H](OCc1ccc(-c3ccc(OC(F)(F)F)cc3)nc1)C2 [compound 6, (6S)-2-Nitro-6-({6-[4-(trifluoromethoxy)phenyl]-3-pyridinyl}methoxy)-6,7-dihydro-5H-imidazo[2,1-b][1,3]oxazine] | 0.05 (≈ 0.0218 µg/mL) | 81 |  | 15 | >89 | 0.54 (≈ 0.236 µg/mL) |  | 24 |  | 
O=[N+]([O-])c1cn2c(n1)OC[C@@H](OCc1ccc(-c3ccc(OC(F)(F)F)cc3)cn1)C2 [compound 7, (6S)-2-Nitro-6-({5-[4-(trifluoromethoxy)phenyl]-2-pyridinyl}methoxy)-6,7-dihydro-5H-imidazo[2,1-b][1,3]oxazine] | 0.065 (≈ 0.0284 µg/mL) | 427 |  | 0.9 | 27 | 3.7 (≈ 1.61 µg/mL) |  | 5.4 |  | 
O=[N+]([O-])c1cn2c(n1)OC[C@@H](OCc1ccc(-c3ccc(C(F)(F)F)cn3)cc1)C2 [compound 8, (6S)-2-Nitro-6-({4-[5-(trifluoromethyl)-2-pyridinyl]benzyl}oxy)-6,7-dihydro-5H-imidazo[2,1-b][1,3]oxazine] | 0.06 (≈ 0.0252 µg/mL) | 67.3 |  | 1.7 | 33 | 1 (≈ 0.42 µg/mL) | 1100 | 8.8 |  | 
O=[N+]([O-])c1cn2c(n1)OC[C@@H](OCc1ccc(-c3ccc(C(F)(F)F)nc3)cc1)C2 [compound 9, (6S)-2-Nitro-6-({4-[6-(trifluoromethyl)-3-pyridinyl]benzyl}oxy)-6,7-dihydro-5H-imidazo[2,1-b][1,3]oxazine] | 0.03 (≈ 0.0126 µg/mL) | 414 |  | 4.6 | 15 | 2.1 (≈ 0.883 µg/mL) |  |  |  | 
O=[N+]([O-])c1cn2c(n1)OC[C@@H](OCc1ccn(-c3ccc(OC(F)(F)F)cc3)n1)C2 [compound 10, (6S)-2-nitro-6-({1-[4-(trifluoromethoxy)phenyl]-1H-pyrazol-3-yl}methoxy)-6,7-dihydro-5H-imidazo[2,1-A][1,3]oxazine] | 0.05 (≈ 0.0213 µg/mL) | 31.5 |  |  | 41 | 0.61 (≈ 0.259 µg/mL) |  |  | 67 | 87
Cn1nc(-c2ccc(OC(F)(F)F)cc2)cc1CO[C@@H]1COc2nc([N+](=O)[O-])cn2C1 [compound 11] | 0.06 (≈ 0.0264 µg/mL) | 92.4 |  | 0.9 | 12 | 0.58 (≈ 0.255 µg/mL) |  |  |  | 
O=[N+]([O-])c1cn2c(n1)OC[C@@H](OCc1ccc(-c3ccc(OC(F)(F)F)cc3)cc1F)C2 [compound 12, (6S)-6-{[3-Fluoro-4'-(trifluoromethoxy)[1,1'-biphenyl]-4-yl]methoxy}-2-nitro-6,7-dihydro-5H-imidazo[2,1-b][1,3]oxazine] | 0.017 (≈ 0.00771 µg/mL) | 549 |  | 16 | 33 | 1.2 (≈ 0.544 µg/mL) | 6700 |  |  | 
O=[N+]([O-])c1cn2c(n1)OC[C@@H](Oc1ccc(-c3ccc(OC(F)(F)F)cc3)cc1)C2 [compound 13, (6S)-2-Nitro-6-{[4'-(trifluoromethoxy)[1,1'-biphenyl]-4-yl]oxy}-6,7-dihydro-5H-imidazo[2,1-b][1,3]oxazine] | 0.05 (≈ 0.0211 µg/mL) | 347 |  |  | 8.1 | 1.3 (≈ 0.548 µg/mL) | 1860 |  |  | 
O=[N+]([O-])c1cn2c(n1)OC[C@@H](OCc1ccc(Cc3ccc(OC(F)(F)F)cc3)cc1)C2 [compound 17, (6S)-2-Nitro-6-({4-[4-(trifluoromethoxy)benzyl]benzyl}oxy)-6,7-dihydro-5H-imidazo[2,1-b][1,3]oxazine] | 0.02 (≈ 0.00899 µg/mL) |  |  |  |  | 1.1 (≈ 0.494 µg/mL) |  |  | 70 | 85
O=C(O[C@@H]1COc2nc([N+](=O)[O-])cn2C1)N1CCN(c2ccc(OC(F)(F)F)cc2)CC1 [compound 20] | 0.13 (≈ 0.0595 µg/mL) | 169 |  |  | 5.2 | 1.1 (≈ 0.503 µg/mL) | 2500 | 10.5 |  | 
O=[N+]([O-])c1cn2c(n1)OC[C@@H](OCc1ccc(-c3ccc(OC(F)(F)F)c(F)c3)nc1)C2 [compound 21, (6S)-6-({6-[3-Fluoro-4-(trifluoromethoxy)phenyl]-3-pyridinyl}methoxy)-2-nitro-6,7-dihydro-5H-imidazo[2,1-b][1,3]oxazine] | 0.025 (≈ 0.0114 µg/mL) | 251 |  |  | >840 | 0.93 (≈ 0.423 µg/mL) | 7000 |  |  | 
O=[N+]([O-])c1cn2c(n1)OC[C@@H](OCc1ccc(-c3ccc(OC(F)(F)F)c(F)c3)cn1)C2 [compound 22, (6S)-6-({5-[3-Fluoro-4-(trifluoromethoxy)phenyl]-2-pyridinyl}methoxy)-2-nitro-6,7-dihydro-5H-imidazo[2,1-b][1,3]oxazine] | 0.05 (≈ 0.0227 µg/mL) | 155 |  |  | 233 | 1.3 (≈ 0.591 µg/mL) | 7600 | 8.4 |  | 
O=[N+]([O-])c1cn2c(n1)OC[C@@H](OCc1ccc(-c3ccc(OC(F)(F)F)cc3)nn1)C2 [compound 24] | 0.075 (≈ 0.0328 µg/mL) | 93.9 |  |  | 11 | 1.7 (≈ 0.743 µg/mL) |  | 2.9 |  | 
O=[N+]([O-])c1cn2c(n1)OC[C@@H](OCc1ccc(C#Cc3ccc(C(F)(F)F)nc3)cn1)C2 [compound 25, (6S)-2-Nitro-6-[(5-{[6-(trifluoromethyl)-3-pyridinyl]ethynyl}-2-pyridinyl)methoxy]-6,7-dihydro-5H-imidazo[2,1-b][1,3]oxazine] | 0.035 (≈ 0.0156 µg/mL) |  |  |  |  | 0.74 (≈ 0.33 µg/mL) |  |  | 91 | 88
O=[N+]([O-])c1cn2c(n1)OC[C@@H](OCc1ccc(-c3ccc(OC(F)(F)F)c(Cl)c3)nc1)C2 [compound 28, (6S)-6-({6-[3-Chloro-4-(trifluoromethoxy)phenyl]-3-pyridinyl}methoxy)-2-nitro-6,7-dihydro-5H-imidazo[2,1-b][1,3]oxazine] | 0.017 (≈ 0.008 µg/mL) | 284 |  |  | >933 | 1 (≈ 0.471 µg/mL) |  |  |  | 
O=[N+]([O-])c1cn2c(n1)OC[C@@H](OCC#Cc1ccc(-c3ccc(OC(F)(F)F)cc3)cc1)C2 [compound 30, (6S)-2-Nitro-6-({3-[4'-(trifluoromethoxy)[1,1'-biphenyl]-4-yl]-2-propynyl}oxy)-6,7-dihydro-5H-imidazo[2,1-b][1,3]oxazine] | 0.16 (≈ 0.0735 µg/mL) | 13.6 |  | 11 | 89 | 0.99 (≈ 0.455 µg/mL) | 570 | 7.5 |  | 
O=[N+]([O-])c1cn2c(n1)OC[C@@H](OCc1ccc(/C=C/c3ccc(OC(F)(F)F)cc3)cc1)C2 [compound 31, (6S)-2-Nitro-6-[(4-{(E)-2-[4-(trifluoromethoxy)phenyl]ethenyl}benzyl)oxy]-6,7-dihydro-5H-imidazo[2,1-b][1,3]oxazine] | 0.02 (≈ 0.00923 µg/mL) |  |  |  | 5.8 | 27 (≈ 12.5 µg/mL) |  |  | 98 | 99
